Measured values reported in US5474988A, “5-phenylpyrrolo-1,4-benzoxazine and 5-phenylpyrrolo-1,4-benzothiazine compounds, process and intermediates for their production and pharmaceutical compositions containing them” (Kali-Chemie Pharma GmbH, priority 1993, dated 1995).

Assays:
5-lipoxygenase = assay: inhibition of 5-lipoxygenase activity in polymorphonuclear rat leucocytes (LTB4 formation); assay type: cell-based; details: 10^-5 mol/l; 22° C.
How it was run: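 Thioglycolate-elicited peritoneal PMNs from male Sprague-Dawley rats (0.5×10^6 cells) preincubated 15 min at 22 °C with 10 μM compound in HEPES-buffered HBSS, then stimulated with 5 μM calcimycin for 10 min. LTB4 quantified by reverse-phase HPLC at 270 nm; % inhibition versus solvent control.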

[1] = system: P.A.F.-induced aggregation of blood platelets; assay: anti-P.A.F. action in vitro (P.A.F.-induced platelet aggregation); assay type: cell-based; details: Oryctolagus cuniculus, 10^-5 mole/liter, read-out: Anti-P.A.F. activity in vitro, % inhibition of the P.A.F.-induced aggregation of blood platelets from rabbit blood
How it was run: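 Washed rabbit platelets (4×10^9/ml stock suspension, aspirin-lysine treated) in modified Tyrode buffer pH 7.4 with 1.3 mM CaCl2 and gelatine; test substance at 10^-5 mol/l final, 90 s preincubation before P.A.F. Aggregation followed 4-5 min by aggregometer; % inhibition of P.A.F.-induced aggregation increase calculated.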

| Structure (SMILES) | In vitro inhibitory activity on LTB4 formation in rat PMNs stimulated by calcium ionophore A23187 (5-lipoxygenase) [%] | inhibition at 10 µM [1] [%] |
| --- | --- | --- |
| COc1ccc2c3c1c(C)c(-c1ccc(O)cc1)n3CC(CCN1CCN(c3cc(C)ccn3)CC1)O2 (centres unmarked) [Example 3, 2,3-Dihydro-5-(4-hydroxyphenyl)-7-methoxy-6-methyl-2-[2-(4-(4-methylpyridin-2-yl)piperazin-1-yl)ethyl]pyrrolo[1,2,3-de]-1,4-benzoxazine] | 96 | 92 |
| Cc1ccnc(N2CCN(CCC3Cn4c(-c5ccc(O)cc5)c(C)c5c(O)ccc(c54)O3)CC2)c1 (centres unmarked) [Example 4, 2,3-Dihydro-7-hydroxy-5-(4-hydroxyphenyl)-6-methyl-2-[2-(4-(4-methylpyridin-2-yl)piperazin-1-yl)ethyl]pyrrolo[1,2,3-de]-1,4-benzoxazine] | 100 | 99 |
| Cc1ccnc(N2CCN(C(=O)CCCC3Cn4c(-c5cc(C)c(O)c(C)c5)c(C)c5cccc(c54)O3)CC2)c1 (centres unmarked) [Example 9, 2,3-Dihydro-5-(3,5-dimethyl-4-hydroxyphenyl)-6-methyl-2-[4-(4-(4-methylpyridin-2-yl)piperazin-1-yl)-4-oxobutyl]-pyrrolo[1,2,3-de]-1,4-benzoxazine] | 86 | 67 |
| COc1cc(-c2c(C)c3cccc4c3n2CC(CCN2CCN(c3cc(C)ccn3)CC2)O4)ccc1O (centres unmarked) [Example 12] | 100 | 93 |
| Cc1ccnc(N2CCN(CCC3Cn4c(-c5ccc(O)c(O)c5)c(C)c5cccc(c54)O3)CC2)c1 (centres unmarked) [Example 13] | 98 | 94 |
| Cc1ccnc(N2CCN(C(=O)CCC3Cn4c(-c5ccc(O)cc5)c(C)c5cccc(c54)O3)CC2)c1 (centres unmarked) [Example 15] | 94 | 100 |
| Cc1ccnc(N2CCN(CCC3Cn4c(-c5cc(C)c(O)c(C)c5)c(C)c5cccc(c54)O3)CC2)c1 (centres unmarked) [Example 20] | 75 | 92 |
| Cc1cc(-c2c(C)c3cccc4c3n2CC(CCCC(=O)N2CCN(c3ccccn3)CC2)O4)cc(C)c1O (centres unmarked) [Example 23] | 92 | 66 |
| Cc1ccnc(N2CCN(C(=O)CCC3Cn4c(-c5cc(C)c(O)c(C)c5)c(C)c5cccc(c54)O3)CC2)c1 (centres unmarked) [Example 25] |  | 91 |
| Cc1cc(-c2c(C)c3cccc4c3n2CC(CCC(=O)N2CCN(c3ccccn3)CC2)O4)cc(C)c1O (centres unmarked) [Example 26] | 67 | 82 |
| Cc1cc(-c2c(C)c3c(F)ccc4c3n2CC(CCN2CCN(c3ccccn3)CC2)O4)cc(C)c1O (centres unmarked) [Example 27] | 90 |  |
| Cc1ccnc(N2CCN(CCC3Cn4c(-c5cc(C)c(O)c(C)c5)c(C)c5c(F)ccc(c54)O3)CC2)c1 (centres unmarked) [Example 28] | 48 | 83 |
| Cc1ccnc(N2CCN(CCCC3Cn4c(-c5cc(C)c(O)c(C)c5)c(C)c5c(F)ccc(c54)O3)CC2)c1 (centres unmarked) [Example 29] |  | 50 |
| Cc1ccc(N2CCN(C(=O)CCC3Cn4c(-c5ccc(O)cc5)c(C)c5cccc(c54)O3)CC2)nc1 (centres unmarked) [Example 34] | 95 | 77 |
| COc1cc(-c2c(C)c3cccc4c3n2CC(CCC(=O)N2CCN(c3ccc(C)cn3)CC2)O4)ccc1O (centres unmarked) [Example 39] | 98 |  |
| Cc1ccnc(N2CCN(CCC3Cn4c(-c5cc(C)c(O)c(C)c5)c(C)c5cc(F)cc(c54)O3)CC2)c1 (centres unmarked) [Example 42] |  | 40 |
| COc1cc2c3c(c1)c(C)c(-c1cc(C)c(O)c(C)c1)n3CC(CCN1CCN(c3cc(C)ccn3)CC1)O2 (centres unmarked) [Example 43] | 66 | 95 |
| Cc1ccnc(N2CCN(CCC3Cn4c(-c5cc(C)c(O)c(C)c5)c(C)c5cc(O)cc(c54)O3)CC2)c1 (centres unmarked) [Example 44] | 100 | 99 |
| Cc1cc(-c2c(C)c3cccc4c3n2CC(CCCCN2CCN(c3ccccn3)CC2)O4)cc(C)c1O (centres unmarked) [Example 65] | 64 | 52 |
| Cc1ccnc(N2CCN(C(=O)CCC3Cn4c(-c5cc(C)c(O)c(C)c5)c(C)c5c(O)ccc(c54)O3)CC2)c1 (centres unmarked) [Example 67] | 100 | 97 |
| Cc1ccnc(N2CCN(C(=O)CCC3Cn4c(-c5ccc(O)cc5)c(C)c5c(O)ccc(c54)O3)CC2)c1 (centres unmarked) [Example 69] | 100 | 97 |
| Cc1cc(-c2c(C)c3c(O)ccc4c3n2CC(CCC(=O)N2CCN(c3ccccn3)CC2)O4)cc(C)c1O (centres unmarked) [Example 71] | 100 | 84 |
| COc1cc(-c2c(C)c3c(O)ccc4c3n2CC(CCC(=O)N2CCN(c3ccccn3)CC2)O4)cc(C)c1O (centres unmarked) [Example 72] | 100 | 79 |
| Cc1ccnc(N2CCN(CCCC3Cn4c(-c5cc(C)c(O)c(C)c5)c(C)c5c(O)ccc(c54)O3)CC2)c1 (centres unmarked) [Example 73] | 100 |  |
| Cc1cccnc1N1CCN(CCCC2Cn3c(-c4cc(C)c(O)c(C)c4)c(C)c4c(O)ccc(c43)O2)CC1 (centres unmarked) [Example 74] | 100 |  |
| Cc1cc(-c2c(C)c3c(OCc4ccccc4)ccc4c3n2CC(CCC(=O)N2CCN(c3ccccn3)CC2)O4)cc(C)c1O (centres unmarked) [Example 75] | 51 |  |
